Results published in ChEMBL document CHEMBL2380264, “Synthesis and antitumor activity of 1,3,4-oxadiazole possessing 1,4-benzodioxan moiety as a novel class of potent methionine aminopeptidase type II inhibitors” (Bioorg Med Chem Lett, 2013).
pIC50: −log10 of the molar value.

Tests used:
[1] = test system: HUVEC; test: Antiproliferative against HUVEC after 48 hrs by MTT assay; conditions: Homo sapiens
[2] = Cytotoxicity against HUVEC after 24 hrs by MTT assay; assay type: cell-based; conditions: human, HUVEC cells
[3] = target: Methionine aminopeptidase 2 (Homo sapiens, UniProt P50579); test: Inhibition of MetAP2 (unknown origin) after 4 hrs
[4] = test system: HUVEC; test: Induction of apoptosis in HUVEC assessed as late apoptotic cells at 1 uM after 24 hrs by annexin V-FITC/propidium iodide staining-based FACS flow cytometric analysis (reference value: 0.09%); assay type: functional, Homo sapiens
[5] = test system: HUVEC; test: Induction of apoptosis in HUVEC assessed as late apoptotic cells at 2 uM after 24 hrs by annexin V-FITC/propidium iodide staining-based FACS flow cytometric analysis (reference value: 0.09%); assay type: functional, Homo sapiens
[6] = test system: HUVEC; test: Induction of apoptosis in HUVEC assessed as viable cells at 0.5 uM after 24 hrs by annexin V-FITC/propidium iodide staining-based FACS flow cytometric analysis (reference value: 96.26%); assay type: functional; conditions: Homo sapiens, read-out: Activity
[7] = test system: HUVEC; test: Induction of apoptosis in HUVEC assessed as dead cells at 0.5 uM after 24 hrs by annexin V-FITC/propidium iodide staining-based FACS flow cytometric analysis (reference value: 2.82%); assay type: functional, Homo sapiens
[8] = test system: HUVEC; test: Induction of apoptosis in HUVEC assessed as dead cells at 2 uM after 24 hrs by annexin V-FITC/propidium iodide staining-based FACS flow cytometric analysis (reference value: 2.82%); assay type: functional, Homo sapiens
[9] = test system: HUVEC; test: Induction of apoptosis in HUVEC assessed as viable cells at 2 uM after 24 hrs by annexin V-FITC/propidium iodide staining-based FACS flow cytometric analysis (reference value: 96.26%); assay type: functional; conditions: Homo sapiens, read-out: Activity
[10] = test system: HUVEC; test: Induction of apoptosis in HUVEC assessed as early apoptotic cells at 0.5 uM after 24 hrs by annexin V-FITC/propidium iodide staining-based FACS flow cytometric analysis (reference value: 0.02%); assay type: functional, Homo sapiens
[11] = test system: HUVEC; test: Induction of apoptosis in HUVEC assessed as viable cells at 4 uM after 24 hrs by annexin V-FITC/propidium iodide staining-based FACS flow cytometric analysis (reference value: 96.26%); assay type: functional; conditions: Homo sapiens, read-out: Activity
[12] = test system: HUVEC; test: Induction of apoptosis in HUVEC assessed as early apoptotic cells at 2 uM after 24 hrs by annexin V-FITC/propidium iodide staining-based FACS flow cytometric analysis (reference value: 0.02%); assay type: functional, Homo sapiens
[13] = test system: HUVEC; test: Induction of apoptosis in HUVEC assessed as early apoptotic cells at 4 uM after 24 hrs by annexin V-FITC/propidium iodide staining-based FACS flow cytometric analysis (reference value: 0.02%); assay type: functional, Homo sapiens
[14] = test system: HUVEC; test: Induction of apoptosis in HUVEC assessed as viable cells at 1 uM after 24 hrs by annexin V-FITC/propidium iodide staining-based FACS flow cytometric analysis (reference value: 96.26%); assay type: functional; conditions: Homo sapiens, read-out: Activity
[15] = test system: HUVEC; test: Induction of apoptosis in HUVEC assessed as dead cells at 4 uM after 24 hrs by annexin V-FITC/propidium iodide staining-based FACS flow cytometric analysis (reference value: 2.82%); assay type: functional, Homo sapiens
[16] = test system: HUVEC; test: Induction of apoptosis in HUVEC assessed as dead cells at 1 uM after 24 hrs by annexin V-FITC/propidium iodide staining-based FACS flow cytometric analysis (reference value: 2.82%); assay type: functional, Homo sapiens
[17] = test system: HUVEC; test: Induction of apoptosis in HUVEC assessed as early apoptotic cells at 1 uM after 24 hrs by annexin V-FITC/propidium iodide staining-based FACS flow cytometric analysis (reference value: 0.02%); assay type: functional, Homo sapiens
[18] = test system: HUVEC; test: Induction of apoptosis in HUVEC assessed as late apoptotic cells at 0.5 uM after 24 hrs by annexin V-FITC/propidium iodide staining-based FACS flow cytometric analysis (reference value: 0.09%); assay type: functional, Homo sapiens
[19] = test system: HUVEC; test: Induction of apoptosis in HUVEC assessed as late apoptotic cells at 4 uM after 24 hrs by annexin V-FITC/propidium iodide staining-based FACS flow cytometric analysis (reference value: 0.09%); assay type: functional, Homo sapiens
[20] = test system: HUVEC; test: Induction of apoptosis in HUVEC after 24 hrs by annexin V-FITC/propidium iodide staining-based FACS flow cytometric analysis; assay type: functional, cell-based; conditions: Homo sapiens

Chain of Methionine aminopeptidase 2 (P50579 whole entry): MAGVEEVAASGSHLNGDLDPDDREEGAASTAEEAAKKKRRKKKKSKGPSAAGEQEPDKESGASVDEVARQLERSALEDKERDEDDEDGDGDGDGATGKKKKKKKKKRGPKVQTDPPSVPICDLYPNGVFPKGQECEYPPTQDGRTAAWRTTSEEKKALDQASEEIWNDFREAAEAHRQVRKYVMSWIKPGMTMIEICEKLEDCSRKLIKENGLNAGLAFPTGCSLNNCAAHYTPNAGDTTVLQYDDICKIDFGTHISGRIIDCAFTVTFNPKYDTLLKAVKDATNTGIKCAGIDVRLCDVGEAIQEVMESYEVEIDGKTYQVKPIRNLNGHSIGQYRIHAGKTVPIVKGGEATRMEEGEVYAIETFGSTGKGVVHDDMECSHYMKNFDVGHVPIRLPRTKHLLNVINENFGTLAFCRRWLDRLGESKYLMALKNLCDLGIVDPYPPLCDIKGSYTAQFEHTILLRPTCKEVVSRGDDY

SMILES	pIC50 [1]	CC50 at 24 h [2] [µM]	also measured
O=[N+]([O-])c1ccc(/C=C/c2nnc(-c3ccc4c(c3)OCCO4)o2)cc1	4.49	299	–
Fc1ccc(/C=C/c2nnc(-c3ccc4c(c3)OCCO4)o2)cc1	5.30	325	–
O=[N+]([O-])c1ccccc1/C=C/c1nnc(-c2ccc3c(c2)OCCO3)o1	4.60	323	–
C(=C\c1nnc(-c2ccc3c(c2)OCCO3)o1)/c1ccccc1	< 4.30	209	–
COc1ccc(/C=C/c2nnc(-c3ccc4c(c3)OCCO4)o2)cc1	< 4.30	312	–
Cc1ccc(/C=C/c2nnc(-c3ccc4c(c3)OCCO4)o2)cc1	4.34	265	–
CO[C@@H]1[C@H](OC(=O)NC(=O)CCl)CC[C@]2(CO2)[C@H]1[C@@]1(C)O[C@@H]1CC=C(C)C [O-CHLOROACETYLCARBAMOYLFUMAGILLOL]	5.71	–	pIC50 [3]: 5.88
Cc1ccccc1/C=C/c1nnc(-c2ccc3c(c2)OCCO3)o1	4.39	356	–
COc1cccc(/C=C/c2nnc(-c3ccc4c(c3)OCCO4)o2)c1	< 4.30	332	–
Brc1ccc(/C=C/c2nnc(-c3ccc4c(c3)OCCO4)o2)cc1	4.65	491	–
Brc1ccccc1/C=C/c1nnc(-c2ccc3c(c2)OCCO3)o1	5.05	287	–
Clc1ccc(/C=C/c2nnc(-c3ccc4c(c3)OCCO4)o2)cc1	5.10	312	–
NNC(=O)c1ccc2c(c1)OCCO2	< 4.30	200	–
Brc1cccc(/C=C/c2nnc(-c3ccc4c(c3)OCCO4)o2)c1	4.87	322	–
O=[N+]([O-])c1cccc(/C=C/c2nnc(-c3ccc4c(c3)OCCO4)o2)c1	4.52	309	–
Cc1cccc(/C=C/c2nnc(-c3ccc4c(c3)OCCO4)o2)c1	4.39	201	–
Fc1cccc(/C=C/c2nnc(-c3ccc4c(c3)OCCO4)o2)c1	5.45	295	–
Fc1ccccc1/C=C/c1nnc(-c2ccc3c(c2)OCCO3)o1	5.94	402	Activity [4]: 14.01%; Activity [5]: 16.4%; viability at 0.5 µM [6]: 63.5%; Activity [7]: 30.26%; Activity [8]: 31.26%; viability at 2 µM [9]: 49.3%; Activity [10]: 1.07%; viability at 4 µM [11]: 39.5%; Activity [12]: 3.01%; Activity [13]: 8.64%; viability at 1 µM [14]: 56.6%; Activity [15]: 26.23%; Activity [16]: 26.68%; Activity [17]: 2.69%; Activity [18]: 5.22%; Activity [19]: 25.61%; Activity [20]: Dose-dependent effect
Clc1ccccc1/C=C/c1nnc(-c2ccc3c(c2)OCCO3)o1	5.11	368	–
